# Data as given in patent publication US20070073039A1, “Peptides that inhibit viral infections” (priority 2005, published 2007).
# Where two headings read alike, the source gives them in different places.
# Assays:
# HCV [1] = assay: HCV focus reduction assay; format: cell-based, Hepatitis C virus (JFH-1); details: 72 h; working concentration 18.4-27.5 μM per peptide; Mock 51
# Procedure, shortened: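 Huh-7.5.1 cells infected with 50 ffu HCV premixed with peptide (~20 μM screen; derivatives at 18, 6 and 2 μM), 4 h adsorption at 37 °C, then washed and cultured 3 days. Foci immunostained for NS5A and counted by fluorescence microscopy. Values are % of mock with 0.5% DMSO solvent.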
# HCV [2] = assay: Intracellular HCV RNA by real time RT-QPCR after infection of Huh-7.5.1 cells with and without peptide; format: cell-based, Hepatitis C virus (JFH-1); details: working concentration 18.4-27.5 μM per peptide
# Dengue-2 [3] = assay: Dengue-2 infection of Vero cells, Enzyme-linked Immunosorbent Assay; format: cell-based; details: for Inhibition of Dengue Infection, α-Capsid 9A7 / Inhibition of Dengue Infection, α-DEN ENV: Vero cells, 5 days
# Procedure: Enzyme-linked Immunosorbent Assay. Vero cells (80,000 cells/well/ml) were seeded for 24 h pre-infection in 24-well plates. Cells were exposed to Dengue-2 (derived from Vero cells) in the presence of increasing concentration of peptide (or DMSO as control). Viruses and peptide were not removed (cells were not washed) throughout the incubation. Infection was analyzed after 5 days using ELISA that measured the amounts of Dengue-2 capsid released in the supernatant of infected Vero cells.
# Dengue-2 [4] = assay: Dengue-2 infection of Vero cells, Intracellular FACS Assay; format: cell-based; details: 20 μM
# Procedure: Intracellular FACS Assay: Vero cells were seeded for 24 h pre-infection in 6-well plates. Cells were exposed to Dengue-2 in the presence of increasing concentrations of peptide (or DMSO as control). Viruses and peptide were washed away 2 h post-infection. Cells were taken for intracellular staining 3 days post-infection. Cells were stained with appropriate isotype control, Dengue Env, Dengue capsid or tubulin antibodies. Cells were analyzed by FACS.
# Dengue-2 [5] = assay: Dengue-2 Fluorescent Foci Assay; format: cell-based; details: FIG. 19; 20 μM
# Procedure: Fluorescent Foci Assay: Vero cells were seeded for 24 h pre-infection in 96-well plates. Cells were exposed to Dengue-2 in the presence of increasing concentrations of peptide (or DMSO as control). Viruses and peptide were washed away 2 h post-infection. Supernatants were collected every 3 days post-infection and added to fresh Vero cells for fluorescent foci assay. Newly infected Vero cells were fixed with 4% formaldehyde after 3 days. Cells were then stained with Dengue Env antibodies followed by Alexa-fluor dye conjugated secondary antibodies. Foci were counted using a fluorescent microscope.
# Fluorescent Foci Assay. Vero cells were seeded for 24 hours pre-infection in 96-well plates. Cells were exposed to Dengue-2 in the presence of increasing concentrations of peptide (or DMSO as control). Viruses and peptide were washed away 2 hours post-infection. Supernatants were collected every 3 days post-infection and added to fresh Vero cells for fluorescent foci assay. Newly infected Vero cells were fixed with 4% formaldehyde after 3 days. Cells were then stained with antibodies directed to the Dengue Envelop protein followed by Alexa-fluor dye conjugated secondary antibodies. Foci were counted using a fluorescent microscope.
# Dengue-2 [6] = assay: Dengue-2 infection of Vero cells, Enzyme-linked Immunosorbent Assay; format: cell-based; details: 1.25 μM, 5 days
# HCV [7] = assay: Median effective concentration (EC50) by intracellular HCV RNA RT-QPCR; format: cell-based, Hepatitis C virus (JFH-1); details: Huh-7.5.1 cells, MOI 0.1
# Procedure: (§1) To determine the median effective concentration (EC50) of peptide #1, peptide stock solution (3.6 mM in DMSO) was serially 2-fold diluted in DMSO. An aliquot of peptide from each dilution was then diluted 1:100 in complete growth medium and mixed with equal volume of virus supernatant. The virus-peptide mixture was then used to infect Huh-7.5.1 cells (MOI=0.1). After adsorption for 4 hours at 37° C., the virus-peptide inoculum was removed. The cells were washed 2 times, overlaid with 120 μL fresh growth medium and incubated at 37° C. for 3 days. Cells were lysed and subjected to RNA analysis. The HCV RNA transcript level was measured by real time RT-QPCR and normalized to cellular GAPDH levels. The inhibition of HCV infection was calculated by comparing the intracellular HCV RNA transcript between the peptide treatment and solvent control.
# as §1, with “(EC50) of the L- and D-form” for “(EC50)”, “serially diluted” for “serially”, “2-fold” for “2-fold diluted”
# [8] = Serum stability of L- and D-type peptides (10% FBS, 37° C., antiviral readout); format: in vitro ADME; details: within 1 hour
# Description: Peptides composed of L-amino acids are susceptible to proteolysis, which could shorten their half-life and, thus, their biological activity. To examine this possibility and to determine if specific peptide-viral protein interactions mediate antiviral activity, peptide 1 was synthesized using all D-amino acids, purified to >95% homogeneity, and its antiviral activity and serum stability were compared with a similarly pure preparation of the L-type version of peptide #1. Both L- and D-type peptides were diluted 1:100 in complete growth medium (10% FBS) and mixed with an equal volume of viral supernatant.
# In addition, to compare the serum stability of the L- and D-type peptides, the diluted peptide was incubated at 37° C. for 1 hour, 2 hours and 4 hours before mixing with viral supernatant. The virus-peptide mixture was then used to infect Huh-7.5.1 cells (MOI=0.1). After adsorption for 4 hours at 37° C., the virus-peptide inoculum was removed. The cells were washed 2 times, overlaid with 120 μL fresh growth medium and incubated at 37° C. for 3 days. Cells were lysed and subjected to RNA analysis. The HCV RNA transcript level was measured by real time RT-QPCR and normalized to cellular GAPDH levels. […] Thus, in addition to low immunogenicity and possible oral bioavailability, peptides composed of D-amino acids have the potential therapeutic advantage of enhanced serum stability.
# MTT cytotoxicity assay = format: cell-based; details: human, hepatocyte cell lines, read-out: LD50 (MTT cytotoxicity)
# Procedure: Peptide cytotoxicity was measured by MTT cytotoxicity assay based on the protocol provided in the ATCC MTT assay kit (Cat #30-1010K). In brief, 5000-10,000 cells were seeded per well in a 96 well plate. Following overnight growth, 100 μL fresh medium plus 20 μL of 2-fold serially diluted peptide was added. Media without peptides was added to at least 3 wells as untreated controls. The cells were then incubated for 72 hours at 37° C., 5% CO2. After this incubation, 1/10 volume of MTT solution ([…] in PBS) was added to each well, and the cells were returned to the incubator. Two hours later, the medium was removed, 150 μL DMSO was added to dissolve the purple precipitate formazan, and the plate was shaken at 150 rpm for 10 minutes. Absorbance at 570 nm less background at 670 nm is a reliable measure of […]. Cytotoxicity (LD50) of individual peptides was defined as the peptide concentration that caused 50% cell death.
# [9] = Preliminary in vivo toxicity in mice
# Procedure: As a preliminary measurement of the in vivo cytotoxicity of the peptides 1, 2 and 3 (see Table 4) a group of three mice (BALB/c mice, 7 weeks old, about 23 g) were each injected with 92 μg L-type peptide 1 ( ˜4 mg/kg) in 200 μL PBS (spun 14,000 rpm for 3 minutes before injection). In the control group, each of three mice was given 200 μL PBS containing 5% DMSO. The mice were monitored for acute toxicity during the first 3 hours after injection.
# No change in appearance, activity or behavior was observed. The mice were then weighed on days 0, 3, 5, 7 and 10. Peptide-injected mice gained weight at the same rate as the controls.
# Huh-7.5.1 cells = assay: Toxicity on Huh-7.5.1 cells incubated with peptides
# JFH-1 virus = assay: Interferon treatment of Huh-7.5.1 cells before JFH-1 infection; format: cell-based, Hepatitis C virus (JFH-1); details: 5, 50 and 500 IU/mL; Huh-7.5.1, MOI 0.3; 3 days
# Procedure: The viral inoculum was removed 4 hours later and the cells were further cultured with interferon for 3 days. At that time cells were harvested, RNA was isolated and analyzed by real-time RT-PCR to determine the intracellular HCV RNA levels. Bars represent intracellular HCV RNA levels expressed as a % of the levels obtained in the control infections.
# Interferon treatment. […] The inoculum was removed after 3 hours of incubation at 37° C., and fresh DMEM supplemented with the indicated doses of IFN was added to the cells. The efficiency of the infection was monitored 72 hours later by quantitative RT-PCR.
compound,measurement,setting,value
LRDIWDWICEVLSDFK [^N-16mer],Focus Reduction (72 h),HCV [1],125
same,Fold Inhibition on HCV RNA (24 h),HCV [2]; 24 h,0.7 fold
same,Fold Inhibition on HCV RNA (72 h),HCV [2]; 72 h,0.6 fold
same,"Inhibition of Dengue Infection, α-Capsid 9A7",Dengue-2 [3]; 1.25 μM,12.82%
same,"Inhibition of Dengue Infection, α-Capsid 9A7",Dengue-2 [3]; 5 μM,16.01%
same,"Inhibition of Dengue Infection, α-DEN ENV",Dengue-2 [3]; 5 μM,33.64%
same,"Inhibition of Dengue Infection, α-Capsid 9A7",Dengue-2 [3]; 20 μM,82.2%
same,"Inhibition of Dengue Infection, α-DEN ENV",Dengue-2 [3]; 20 μM,74.83%
same,Inhibition of Dengue viral infection as detected by ELISA,"Dengue-2 [3]; FIG. 17, 20 μM",about 84%
same,Inhibition of Dengue viral infection as detected by FACS,Dengue-2 [4]; FIG. 18,about 80%
same,Inhibition of Dengue viral infection by immunofluorescence assay,Dengue-2 [5],about 90%
same,"Inhibition of Dengue Infection, α-DEN ENV",Dengue-2 [6],10.24%
CC[C@H](C)[C@H](NC(=O)[C@H](CC(=O)O)NC(=O)[C@H](CCCNC(=N)N)NC(=O)[C@H](CC(C)C)NC(=O)[C@H](Cc1c[nH]c2ccccc12)NC(=O)[C@@H](N)CO)C(=O)N[C@@H](Cc1c[nH]c2ccccc12)C(=O)N[C@@H](CC(=O)O)C(=O)N[C@@H](Cc1c[nH]c2ccccc12)C(=O)N[C@H](C(=O)N[C@@H](CS)C(=O)N[C@@H](CCC(=O)O)C(=O)N[C@H](C(=O)N[C@@H](CC(C)C)C(=O)N[C@@H](CO)C(=O)N[C@@H](CC(=O)O)C(=O)N[C@@H](Cc1ccccc1)C(=O)N[C@@H](CCCCN)C(=O)O)C(C)C)[C@@H](C)CC [Peptide 1],EC50,"HCV [7]; FIG. 12B-C, 3 days, read-out: EC50 of the L- and D-forms of peptide 1",~1000 nM
same,EC50,"HCV [7]; peptide with virus 4 hours, HCV RNA after 3 days, listed as peptide 1, read-out: EC50 against HCV infection",300 nM
same,EC50,"HCV [7]; peptide with virus 4 hours, HCV RNA after 3 days, listed as peptide #1, read-out: EC50 against HCV infection",~300 nM
same,EC50,"HCV [7]; peptide with virus 4 hours, HCV RNA after 3 days, read-out: EC50 against HCV infection",289 nM
same,Antiviral activity lost on incubation in 10% FBS at 37° C.,[8],approximately 95%
same,CC50 at 72 h,MTT cytotoxicity assay; with FBS,26700 nM
same,CC50 at 72 h,MTT cytotoxicity assay; without FBS,3800 nM
same,In vivo toxicity observation,"[9]; 92 μg ( ˜4 mg/kg) in 200 μL PBS, acute toxicity first 3 hours, weight to day 10","Peptides 1, 2 and 3 are Nontoxic in C57BL/6 Mice"
same,Weight(g) (d.0),"[9]; day 0, ˜4 mg/kg injected",22.2 g
same,Weight(g) (d.3),[9]; day 3,22.3 g
same,Weight(g) (d.5),[9]; day 5,22.8 g
same,Weight(g) (d.7),[9]; day 7,23.1 g
same,Weight(g) (d.10),[9]; day 10,23.5 g
same,% of Dead cells PI,"Dengue-2 [4]; propidium iodide staining, Vero cells 3 days post-infection",1.88%
same,Evidence of toxicity / cytotoxicity,Huh-7.5.1 cells,without evidence of cytotoxicity
"IFNγ: human IFNγ (PBL Biomedical Lab, Piscataway, N.J.)",Inhibition of HCV infection by interferons,JFH-1 virus,efficiently inhibit HCV infection
